Laboratory results published in patent EP1206476B1, “9A-AZALIDES WITH ANTIBACTERIAL ACTIVITY” (ABBOTT LABORATORIES, priority 1999, dated 2001).

Columns and labels:
Assay in all cases: In vitro assay of antibacterial activity (agar dilution MIC)
Format in all cases: cell-based
[1] = tested on: Nocardia Asteroides ATCC 99700; details: code VV = Nocardia Asteroides ATCC 99700; BHI agar, 35-37 °C, 20 to 24 hours; unit assumed
Procedure: (§1) Representative compounds of the present invention were assayed in vitro for antibacterial activity as follows: Twelve petri dishes containing successive aqueous dilutions of the test compound mixed with 10 mL of sterilized Brain Heart Infusion (BHI) agar (Difco 0418-01-5) were prepared. Each plate was inoculated with 1:100 (or 1:10 for slow-growing strains, such as Micrococcus and Streptococcus) dilutions of up to 32 different microorganisms, using a Steers replicator block. The inoculated plates were incubated at 35-37 °C for 20 to 24 hours. In addition, a control plate, using BHI agar containing no test compound, was prepared and incubated at the beginning and end of each test.
(§2) An additional plate containing a compound having known susceptibility patterns for the organisms being tested and belonging to the same antibiotic class as the test compound was also prepared and incubated as a further control, as well as to provide test-to-test comparability. Erythromycin A was used for this purpose.
(§3) After incubation, each plate was visually inspected. The minimum inhibitory concentration (MIC) was defined as the lowest concentration of drug yielding no growth, a slight haze, or sparsely isolated colonies on the inoculum spot as compared to the growth control.

[2] = tested on: Mycobacterium smegmatis ATCC 114; details: code UU = Mycobacterium smegmatis ATCC 114; BHI agar, 35-37 °C, 20 to 24 hours; unit assumed
Procedure: as §1, §2, §3

[3] = tested on: Staphylococcus aureus A-5177; details: code BB = Staphylococcus aureus A-5177; BHI agar, 35-37 °C, 20 to 24 hours; unit assumed
Procedure: as §1, §2, §3

[4] = tested on: Staphylococcus aureus NCTC 10649M; details: code EE = Staphylococcus aureus NCTC 10649M; BHI agar, 35-37 °C, 20 to 24 hours; unit assumed
Procedure: as §1, §2, §3

[5] = tested on: Streptococcus Pneumonia 5649; details: code ZA = Streptococcus Pneumonia 5649; BHI agar, 35-37 °C, 20 to 24 hours; unit assumed
Procedure: as §1, §2, §3

[6] = tested on: Streptococcus pyogenes 930; details: code MM = Streptococcus pyogenes 930; BHI agar, 35-37 °C, 20 to 24 hours; unit assumed
Procedure: as §1, §2, §3

[7] = tested on: Candida albicans CCH 442; details: code TT = Candida albicans CCH 442; BHI agar, 35-37 °C, 20 to 24 hours; unit assumed
Procedure: as §1, §2, §3

[8] = tested on: Streptococcus Pneumonia ATCC 6303; details: code XX = Streptococcus Pneumonia ATCC 6303; BHI agar, 35-37 °C, 20 to 24 hours; unit assumed
Procedure: as §1, §2, §3

[9] = tested on: Staphylococcus aureus A-5278; details: code CC = Staphylococcus aureus A-5278; BHI agar, 35-37 °C, 20 to 24 hours; unit assumed
Procedure: as §1, §2, §3

[10] = tested on: Streptococcus pyogenes EES61; details: code LL = Streptococcus pyogenes EES61; BHI agar, 35-37 °C, 20 to 24 hours; unit assumed
Procedure: as §1, §2, §3

[11] = tested on: Streptococcus Pneumonia GYR 1171; details: code YY = Streptococcus Pneumonia GYR 1171; BHI agar, 35-37 °C, 20 to 24 hours; unit assumed
Procedure: as §1, §2, §3

[12] = tested on: Escherichiacoli JUHL; details: code QQ = Escherichiacoli JUHL; BHI agar, 35-37 °C, 20 to 24 hours; unit assumed
Procedure: as §1, §2, §3

[13] = tested on: Staphylococcus aureus 1775; details: code GG = Staphylococcus aureus 1775; BHI agar, 35-37 °C, 20 to 24 hours; unit assumed
Procedure: as §1, §2, §3

[14] = tested on: Staphylococcus aureus ATCC 6538P; details: code AA = Staphylococcus aureus ATCC 6538P; BHI agar, 35-37 °C, 20 to 24 hours; unit assumed
Procedure: as §1, §2, §3

[15] = tested on: Streptococcus pyogenes PIU 2548; details: code NN = Streptococcus pyogenes PIU 2548; BHI agar, 35-37 °C, 20 to 24 hours; unit assumed
Procedure: as §1, §2, §3

[16] = tested on: Staphylococcus epidermidis 3519; details: code HH = Staphylococcus epidermidis 3519; BHI agar, 35-37 °C, 20 to 24 hours; unit assumed
Procedure: as §1, §2, §3

[17] = tested on: Streptococcus bovis A-5169; details: code JJ = Streptococcus bovis A-5169; BHI agar, 35-37 °C, 20 to 24 hours; unit assumed
Procedure: as §1, §2, §3

[18] = tested on: Escherichiacoli SS; details: code RR = Escherichiacoli SS; BHI agar, 35-37 °C, 20 to 24 hours; unit assumed
Procedure: as §1, §2, §3

[19] = tested on: Streptococcus agalactiae CMX 508; details: code KK = Streptococcus agalactiae CMX 508; BHI agar, 35-37 °C, 20 to 24 hours; unit assumed
Procedure: as §1, §2, §3

[20] = tested on: Haemophilislnfluenzae DILL AMP R; details: code WW = Haemophilislnfluenzae DILL AMP R; BHI agar, 35-37 °C, 20 to 24 hours; unit assumed
Procedure: as §1, §2, §3

[21] = tested on: Micrococcusluteus ATCC 4698; details: code PP = Micrococcusluteus ATCC 4698; BHI agar, 35-37 °C, 20 to 24 hours; unit assumed
Procedure: as §1, §2, §3

[22] = tested on: Streptococcus Pneumonia 5979; details: code ZZ = Streptococcus Pneumonia 5979; BHI agar, 35-37 °C, 20 to 24 hours; unit assumed
Procedure: as §1
An additional plate containing a compound having known susceptibility patterns for the organisms being tested and belonging to the same antibiotic class as the test compound was also prepared and incubated as a further control, as well as to provide test-to-test comparability.
as §3

| SMILES | Antibacterial Activity (MIC's) [1] [µg/mL] | Antibacterial Activity (MIC's) [2] [µg/mL] | Antibacterial Activity (MIC's) [3] [µg/mL] | Antibacterial Activity (MIC's) [4] [µg/mL] | Antibacterial Activity (MIC's) [5] [µg/mL] | Antibacterial Activity (MIC's) [6] [µg/mL] | Antibacterial Activity (MIC's) [7] [µg/mL] | Antibacterial Activity (MIC's) [8] [µg/mL] | Antibacterial Activity (MIC's) [9] [µg/mL] | Antibacterial Activity (MIC's) [10] [µg/mL] | Antibacterial Activity (MIC's) [11] [µg/mL] | Antibacterial Activity (MIC's) [12] [µg/mL] | Antibacterial Activity (MIC's) [13] [µg/mL] | Antibacterial Activity (MIC's) [14] [µg/mL] | Antibacterial Activity (MIC's) [15] [µg/mL] | Antibacterial Activity (MIC's) [16] [µg/mL] | Antibacterial Activity (MIC's) [17] [µg/mL] | Antibacterial Activity (MIC's) [18] [µg/mL] | Antibacterial Activity (MIC's) [19] [µg/mL] | Antibacterial Activity (MIC's) [20] [µg/mL] | further results |
| --- | --- | --- | --- | --- | --- | --- | --- | --- | --- | --- | --- | --- | --- | --- | --- | --- | --- | --- | --- | --- | --- |
| CC[C@H]1OC(=O)[C@H](C)[C@@H](O[C@H]2C[C@@](C)(OC)[C@@H](O)[C@H](C)O2)[C@H](C)[C@@H](O[C@@H]2O[C@H](C)C[C@H](N(C)C)[C@H]2O)[C@](C)(O)C[C@@H](C)C(=O)[C@H](C)[C@@H](O)[C@]1(C)O [Ery. A standard, Erythromycin A, reference compound] | 0.1 | 3.1 | 3.1 | 0.39 | 16 | > 100 | > 100 | 0.06 | > 100 | 0.05 | 0.06 | > 100 | > 100 | 0.2 | 6.2 | 0.39 | 0.02 | 0.78 | 0.05 | 4 | Antibacterial Activity (MIC's) [21]: 0.2 µg/mL |
| C=CCO[C@]1(C)C[C@@H](C)CN[C@H](C)[C@@H](O)[C@](C)(O)[C@@H](CC)OC(=O)[C@H](C)[C@@H](O[C@H]2C[C@@](C)(OC)[C@@H](O)[C@H](C)O2)[C@H](C)[C@H]1O[C@@H]1O[C@H](C)C[C@H](N(C)C)[C@H]1O [Example 2] | 0.1 | 6.2 | 12.5 | 0.39 | 16 | > 100 | > 100 | 0.06 | > 100 | 0.05 | 0.06 | 50 | > 100 | 0.2 | 6.2 | 0.2 | 0.02 | 0.78 | 0.05 | 8 | Antibacterial Activity (MIC's) [22]: > 128 µg/mL; Antibacterial Activity (MIC's) [21]: 0.39 µg/mL |
